Earlier results, collected in patent US20210196697A1, “COMBINATION THERAPIES FOR TREATING BIPOLAR DISORDER AND ADHD, AND METHODS FOR USING THE SAME” (PsychNostics, LLC, priority 2017, published 2021).

Tests used:
[1] = tested on: SK-N-SH Neuroblastoma Cells; conditions: addition of carbachol to [3H]cytidine-prelabeled cells

## [Li] [Li, lithium]
Lithium in BD patients
  therapeutic level: around 1.2 mM
  toxic level: about 2 mM

## COC(=O)C(c1ccccc1)C1CCCCN1 (centres unmarked) [MPH, methylphenidate]
ADHD patients
  effect on MPR: reduces the MPR in a dose dependant manner

## C[N+](C)(C)CCOC(N)=O [carbachol]
[1]
  accumulation of labeled CDP-DAG: four to fivefold increase

## CN1CCN(C2=Nc3cc(Cl)ccc3Nc3ccccc32)CC1 [clozapine]
Serum / blood plasma
  therapeutic level / therapeutic reference range: 200 to 1000 ng/mL
